Where “and” joins values, the source holds several entries; their conditions need not be identical. Equal values may be shown once. Read-outs that look alike come from different tables or passages of the source.
Assays:
HepG2 cells = experiment: intracellular total glutathione (Cayman kit); format: cell-based, human; details: 24 h
Experimental: Then, the cells from two wells were collected by cell scraper and washed once with PBS. The intracellular total glutathione (GSH) was measured with a commercial glutathione assay kit under the standard protocol (Cayman Chemical, Ann Arbor, USA). […] Supernatant was then collected after centrifugation at 12,000 × g for 15 min at 4 °C before the deproteination by adding an equal volume of 2.5 M metaphosphoric (MPA, Sigma). After the incubation for 5 min, the mixture was centrifuged at 3000 × g for 5 min. The supernatant was collected and added appropriate amount of 4 M triethanolamine (Sigma, 50 μl per 1 ml of the supernatant). The deproteinated and neutralized supernatant was used for the determination of the amount of total GSH by incubating with the assay reagents (from the kit) in a 96-well plate. After an incubation of 25 min, the absorbance at 405 nm was recorded and converted into the amount of GSH with a standard curve.

[1] = system: HepG2, HEK293T, Huh7, H22, Panc-28, HCT116 and MDA-MB-231 cells; experiment: cell proliferation, all tested cell lines; format: cell-based; details: 24 h; read-out: IC50 range, proliferation of all tested cells
Experimental: With a bioactive and selective inhibitor of CBS in hand, we examined the effect of CH004 on the proliferation of HepG2 and HEK293T cells as well as hepatocellular carcinoma Huh7 and H22, pancreatic cancer Panc-28, colon cancer HCT116 and breast cancer MDA-MB-231 cells. […] HCT116 was the most affected cell line with an IC50 of 4 μM amongst tested cell lines (Fig. 4a and Supplementary Figure 11). […] To confirm that CH004-mediated inhibitory effects are due to the specific inhibition of hCBS, we generated hCBS-overexpressed (293T-CBS WT) stable cell lines by transducing HEK293T cells with lentivirus carrying hCBS WT genes. […] In supporting the pros of CBS on the proliferation, knock-down of CBS indeed substantially retards cell proliferation in HEK293T cells (Supplementary Figure 12c, d). […] Importantly, CH004 could largely retard the colony formation of HepG2 cells with an IC50 of ~8 μM (Supplementary Figure 12e–g).
To measure cell viability and cytotoxicity, HepG2, HEK293T, Huh-7, H22, Panc-28, HCT116 and MDA-MB-231 cells were seeded at a density of ~ 2 × 10^4 cells per well in 96-well plates (Coring, NY, USA) for one day, followed by incubation with DMSO or various concentrations of tested compound for indicated times. […]

hCSE = hCSE (Homo sapiens, UniProt P32929); experiment: purified hCSE enzyme assay; format: biochemical; parameters: human CBS or hCSE full-length (CBS-FL or CSE) was subcloned into pGEX-KG, pcDNA3 or pCDH vector; GST (N); made in house; host or cells: E. coli BL21
Chain of hCSE (P32929 whole entry): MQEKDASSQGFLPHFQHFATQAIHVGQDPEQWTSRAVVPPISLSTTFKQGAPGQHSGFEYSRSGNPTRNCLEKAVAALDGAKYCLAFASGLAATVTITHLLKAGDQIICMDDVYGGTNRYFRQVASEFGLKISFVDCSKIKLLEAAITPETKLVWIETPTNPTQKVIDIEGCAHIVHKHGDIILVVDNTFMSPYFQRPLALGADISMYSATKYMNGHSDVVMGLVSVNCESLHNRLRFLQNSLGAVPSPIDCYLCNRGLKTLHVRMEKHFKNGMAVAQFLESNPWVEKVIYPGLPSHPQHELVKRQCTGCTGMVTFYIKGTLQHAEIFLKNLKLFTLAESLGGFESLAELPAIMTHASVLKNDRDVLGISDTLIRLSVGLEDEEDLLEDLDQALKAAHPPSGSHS
Experimental: Fig. 1 CH004 inhibits the activity of hCBS in the in vitro purified enzyme assays under different assay conditions. a A scheme for the cascade enzymatic reactions catalyzed by CBS or CSE. Cth, cystathionine. b, c Inhibitory effects of CH004 on the activity of hCBS-413 (b) or hCSE (c). The enzyme activities were monitored for various concentrations of CH004 under the standard conditions (50 mM Tris-HCl, pH 8.6; “Materials and Methods” section). The result is shown as percentages of the control (DMSO, 100%). The data are shown as means ± SDS (n = 3). d The dose-dependent inhibition of CH004 on the hCBS-413 activity was measured by the tandem-well-based assay under the standard conditions except using 50 mM Hepes buffer (pH 7.4) instead of 50 mM Tris-HCl (pH 8.6). Means ± SDs (n = 3). e The dose-dependent inhibition of CH004 on the CBS activity measured by methylene blue method. […] After 80 min, the assay was stopped by added 10 μL 10% ZnAC and the generated H2S was quantified by N,N-dimethyl-p-phenylenediamine to give an absorbance at 670 nm (for details, see Materials and Methods section; ref. [53]).
(§1) The IC50 values of CH004 for hCBS-413, hCBS-413 mutants, hCBS-FL, hCSE or hDDC were determined according to the standard assay conditions otherwise indicated.

hCBS-413 = target: T1, hCBS-413 (Homo sapiens, UniProt P35520); experiment: purified hCBS-413 enzyme assay (192-tandem-well plate, H2S detected with DTNB); format: biochemical
T1 construct: hCBS-413 (a C-terminal truncated hCBS 1–413); GST (N); made in house; host or cells: E. coli BL21
T1 sequence (P35520 1-413): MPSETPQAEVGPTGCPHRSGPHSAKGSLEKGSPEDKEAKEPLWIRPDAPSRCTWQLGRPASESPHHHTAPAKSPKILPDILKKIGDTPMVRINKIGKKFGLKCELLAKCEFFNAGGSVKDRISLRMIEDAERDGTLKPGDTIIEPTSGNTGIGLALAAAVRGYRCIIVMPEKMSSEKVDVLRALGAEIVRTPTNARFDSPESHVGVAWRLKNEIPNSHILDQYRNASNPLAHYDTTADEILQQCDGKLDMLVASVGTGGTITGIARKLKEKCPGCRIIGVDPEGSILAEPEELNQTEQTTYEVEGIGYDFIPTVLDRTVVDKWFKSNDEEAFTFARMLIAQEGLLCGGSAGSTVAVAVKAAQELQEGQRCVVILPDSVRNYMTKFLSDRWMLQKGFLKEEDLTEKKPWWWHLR
Experimental: Fig. 1 CH004 inhibits the activity of hCBS in the in vitro purified enzyme assays under different assay conditions. a A scheme for the cascade enzymatic reactions catalyzed by CBS or CSE. Cth, cystathionine. b, c Inhibitory effects of CH004 on the activity of hCBS-413 (b) or hCSE (c). The enzyme activities were monitored for various concentrations of CH004 under the standard conditions (50 mM Tris-HCl, pH 8.6; “Materials and Methods” section). The result is shown as percentages of the control (DMSO, 100%). The data are shown as means ± SDS (n = 3). d The dose-dependent inhibition of CH004 on the hCBS-413 activity was measured by the tandem-well-based assay under the standard conditions except using 50 mM Hepes buffer (pH 7.4) instead of 50 mM Tris-HCl (pH 8.6). Means ± SDs (n = 3). e The dose-dependent inhibition of CH004 on the CBS activity measured by methylene blue method. The CBS enzyme assay was performed with a 50 μl assay buffer in an Eppendorf tube under the standard assay conditions for the 192-tandem-well based assay, i.e., 50 μl 50 mM Tris-HCl buffer (pH 8.6) containing 150 nM hCBS-FL, 200 μM S-adenosyl-L-methionine, 4 mM L-Cys and 4 mM D,L-Hcys, in the presence of 0 (DMSO control), 0.01, 0.5, 1, 5, 10 or 100 μM CH004. After 80 min, the assay was stopped by added 10 μL 10% ZnAC and the generated H2S was quantified by N,N-dimethyl-p-phenylenediamine to give an absorbance at 670 nm (for details, see Materials and Methods section; ref. [53]).
as §1
Table S2. Inhibitory effects of CH004 on hCBS WT and mutants.

Cn1nc(Cc2ccccc2)nc2c(=O)n(C)c(=O)nc1-2 [CH004, 3-benzyl-1,6-dimethylpyrimido[5,4-e][1,2,4]triazine-5,7(1H,6H)-dione]
intracellular pool of glutathione (GSH) (HepG2 cells): dose-dependently deplete
IC50 [1]: 4 to 25 µM
Fold selectivity hCSE vs hCBS-413 (hCSE; IC50 of hCSE / IC50 of hCBS-413): 29.9 fold
IC50 (hCSE; standard conditions, 50 mM Tris-HCl pH 8.6): 29.9 ± 5.6 µM
IC50 (hCBS-413; 150 nM purified CBS, 4 mM Hcys, 4 mM Cys, 50 mM Tris-HCl pH 8.6 (Table S2), read-out: IC50 hCBS WT): 1.2 ± 0.05 µM
IC50 fold to WT, hCBS WT (hCBS-413; Table S2): 1
IC50 (hCBS-413; hCBS-413, 50 mM Hepes buffer pH 7.4 instead of Tris-HCl pH 8.6, read-out: IC50 on hCBS (Hepes; pH 7.4)): 1.1 ± 0.17 µM
IC50 (hCBS-413; standard conditions, 50 mM Tris-HCl pH 8.6, read-out: IC50 on hCBS-413): ~1 µM and 1 µM
